This assay concerns Mediterranean fruitfly (Ceratitis capitata). Put plainly: Control of Mediterranean fruitfly, egg and larval mortality in 96-well microtiter plates with insect diet. The assay is classed as in vivo. The conditions noted are these: sprayed onto insect diet with C. capitata eggs, 5 days at 28±1° C., 80±5% RH, egg and larval mortality visually assessed. As to the method: For evaluating control of Mediterranean fruitfly (Ceratitis capitata) the test unit consisted of 96-well-microtiter plates containing an insect diet and 50-80 C. capitata eggs. The compounds or mixtures were formulated using a solution containing 75% water and 25% DMSO. Different concentrations of formulated compounds or mixtures were sprayed onto the insect diet at 5 μl, using a custom built micro atomizer, at two replications.
For experimental mixtures in these tests identical volumes of both mixing partners at the desired concentrations respectively, were mixed together.
After application, microtiter plates were incubated at 28±1° C., 80±5% RH (relative humidity) for 5 days. Egg and larval mortality was then visually assessed.

From patent US20100093532A1, “Pesticidal Mixtures Comprising Phenylsemicarbazone and Clothianidin” (BASF SE, priority 2007, published 2010) come the findings set out here.

In the case of `CN/C(=N\[N+](=O)[O-])NCc1cnc(Cl)s1` [Clothianidin, (E)-1-(2-chloro-1,3-thiazol-5-ylmethyl)-3-methyl-2-nitroguanidine], under “Clothianidin 2 ppm”, the “Average Control (%)” value is listed as 0%.
In the case of `N#Cc1ccc(CC(=NNC(=O)Nc2ccc(OC(F)(F)F)cc2)c2cccc(C(F)(F)F)c2)cc1` (racemic) [Metaflumizone, 2-[2-(4-cyanophenyl)-1-[3-(trifluoromethyl)phenyl]ethylidene]-N-[4-(trifluoromethoxy)phenyl]hydrazinecarboxamide], the “Average Control (%)” value (Metaflumizone 20 ppm) stood at 0%.
